Where a name gives a salt, the structure may show the parent alone.
Experiments:
Type in all cases: physicochemical
[1] = Total percent loading of microspheres with FUDR; details: 5 mg/ml FUDR in methanol; 50/49/1 microspheres, 50–80 μm
Procedure: (§1) Initial FUDR Test. 150 mg of 50–80 μm diameter EMA/DEA/DVB (in a ratio of 50/49/1) microspheres were washed twice with methanol, dried and then immersed in 1 ml of methanol containing 5 mg FUDR. After 24 hours the methanol was allowed to evaporate and the loaded spheres were dispersed in 50 ml of distilled water and centrifuged repeatedly for 10 cycles. The spheres were collected and allowed to dry in a cone filter under the hood for 24 hours. 10 mg of the loaded spheres were placed in each of two separate vials containing either 15 ml of pH 6.8 citric acid buffer (0.05 M I=0.3) or pH 7.4 potassium phosphate monobasic-NaOH buffer (0.05M, Fisher Scientific). Each vial was agitated by hand daily and a total of 5 samples (5 ml each) were taken over a 14 day period and measured spectrophotometrically at 268 nm to determine the FUDR concentration in solution. Each sample was replaced using fresh buffer. The total percent loading was determined by the same process after placing a 10 mg sample of spheres into 15 ml of pH 4.0 citric acid buffer for 24 hours.

[2] = In vitro FUDR release from microspheres in buffer; details: 50/49/1 microspheres
Procedure: as §1
Follow-up FUDR Release. […] Sample volumes of 5 ml and 3 ml were taken from the pH 6.6 and 6.9 buffers, respectively.

[3] = In vitro doxorubicin release from microspheres in buffer; details: pH 6.75; 50/49/1 microspheres
Procedure: Doxorubicin Release. The doxorubicin release experiments were carried out in the same manner as the FUDR and dye release. 150 mg of 50–80 μm diameter microspheres were cleaned and immersed in 1 ml of methanol containing 5 mg of the drug for 24 hours and the methanol was allowed to evaporate slowly under the hood. The loaded microspheres were cleaned and dried and 10 mg samples were placed into 20 ml glass vials (Fisher Scientific). 15 ml of citric acid buffer was placed into each vial such that there were three samples each at pH values of 6.6, 6.75, and 6.9. Drug release at pH 7.4 was performed using 15 ml potassium phosphate buffer added to each of the remaining three vials. Drug release was measured spectrophotometrically at 479 nm.

[4] = Total percent loading of microspheres with test dye; details: 9-aminoacridine, 100 mg per ml of methanol; spheres from suspension polymerization
Procedure: (§2) All four compositions produced in Example 1 were tested for release properties using 9-aminoacridine (Aldrich) (free from HCl) as a test dye. A 100–150 mg sample of each composition (from the 50–80 μm size group) was first washed twice with methanol, allowed to dry, and then immersed in a saturated solution of 9-aminoacridine in methanol (10 wt %) for 24 hours. The methanol was allowed to evaporate (usually for 24 hours) and the microspheres were washed by a repeated process of suspension and centrifuging (Adams Dynac centrifuge) in fresh neutral pH water (at least 10 cycles). The loaded spheres were collected in a paper filter cone and dried in an oven at 60° C. under vacuum.
For each composition, 5 mg of dye-loaded spheres were placed in glass vials (Fisher 20 ml scintillation vials) containing 15 ml of citric acid buffer (0.05 M, I=0.3) at pH 6.0, 6.5, and 6.8. The buffer solutions consisted of citric acid (anhydrous, Fisher Scientific), NaOH (Fisher Scientific), deionized water, and NaCl (Aldrich). A total of three samples were used from each composition at each pH value to account for error involved with the weighing of the microspheres. At least five samples (5 ml each) were taken from each vial over a 14 day period and the concentration of dye released was determined spectrophotometrically at 400 nm using a Perkin-Elmer Lambda 3B UV/VIS spectrophotometer. […]

[5] = Release of test dye from microspheres in buffer over 14 days
Procedure: as §2
[…] […] A total of three samples were used from each composition at each pH value to account for error involved with the weighing of the microspheres. At least five samples (5 ml each) were taken from each vial over a 14 day period and the concentration of dye released was determined spectrophotometrically at 400 nm using a Perkin-Elmer Lambda 3B UV/VIS spectrophotometer. Each sample was replaced with fresh buffer solution. A 5 mg sample of each composition was also placed into 15 ml of pH 2.5 citric acid buffer (0.05 M) for 24 hours to determine the total percent loading (mg dye released/mg loaded spheres) for the microspheres.

## O=c1[nH]c(=O)n([C@H]2C[C@H](O)[C@@H](CO)O2)cc1F [FUDR, fluorodeoxyuridine]
[1]
  FUDR loading level: 1.4 weight percentage
[2]; pH 6.8
  FUDR release over 14 day period: 80%
[2]; pH 6.9
  FUDR 14 day release: 55%
[2]; pH 7.4
  FUDR release: over 10%

## COc1cccc2c1C(=O)c1c(O)c3c(c(O)c1C2=O)C[C@@](O)(C(=O)CO)C[C@@H]3O[C@H]1C[C@H](N)[C@H](O)[C@H](C)O1 [doxorubicin, hydroxydaunomycin hydrochloride]
[3]
  doxorubicin release over two week period: 75%

## Nc1c2ccccc2nc2ccccc12 [test dye, 9-aminoacridine]
[4]
  dye loading as restated in text: about 15%
[5]; pH 6.8 citric acid buffer
  test dye release after 14 days: 76%
[5]; pH 6.9 citric acid buffer
  test dye release after 14 days: 63%
[5]; pH 7.4 potassium phosphate monobasic-NaOH buffer
  test dye release after two weeks: over 10%

From patent publication US7001616B2, “Microspheres for use in the treatment of cancer” (University of Florida, priority 1998, dated 2006)
